How the values were obtained:
[1] = system: HIF1B-knockout MCF7 cells; experiment: Retrotransposon expression by mRNA-seq and RepEnrich in HIF1B-knockout MCF7 cells; assay type: cell-based, human
Procedure: MCF7, RCC4, SK-MEL-28, A549, 4T1, MC38 and CT26 cell lines were obtained from the American Type Culture Collection and their identity was not further authenticated. These are not listed in the database of commonly misidentified cell lines maintained by ICLAC. MCF7 HIF1B-knockout cells were previously described (Ahmed et al. 2013, Toxicol Sci 138:89-103). MCF7, RCC4, A549, MC38 and 4T1 cells were cultured at 37° C. in Dulbecco's modified Eagle medium (DMEM) with 10% fetal bovine serum (FBS), 5 mL of 100 U/mL Penicillin-Streptomycin (Pen Strep, Life Technologies) and 5 mL of L-Glutamine 200 mM. SK-MEL-28 and CT26 cell lines were cultured at 37° C. in Roswell Park Memorial Institute 1640 Medium (RPMI) with 10% FBS 1% Penicillin-Streptomycin and 1% L-Glutamine.
Where indicated, cells were pre-treated with 5-aza-2′-deoxycytidine (aza, 1 μM) for 3 days by adding the correct volume to fresh culture medium while using an equal volume of the carrier (DMSO) as control. This was followed by another day of exposure to aza in hypoxia or normoxia, bringing the total aza exposure time for experiments to 4 days. […]
RNA-seq data were expressed in transcript per million (TPM), 0.01 offset. Expression read counts of retrotransposons are calculated using the RepEnrich tool (https://github.com/nerettilab/RepEnrich), and normalized to the total mappable read depth. […]

4T1^Hif1b-scr grafts = experiment: 4T1 Hif1b-scr (scramble-control) grafts in mice treated with aza or vehicle; assay type: in vivo, mouse
From the text: (§1) Four gRNAs targeting two different exons in the Hif1b locus of the mouse genome and one non-targeting gRNA (scramble) were designed with the appropriate restriction sites for the receiver plasmid using the online Crispor tool (http://crispor.tefor.net). Oligonucleotides corresponding to gRNAs were synthesized by IDT, and forward and reverse oligonucleotides were annealed in the CutSmart buffer (B7240S, NEB) before cloning into the LentiGuide-Puro plasmid (Plasmid 52963, Addgene). Positive colonies were screened by PCR and validated by Sanger sequencing. LentiGuide-Puro plasmids containing GFP was used as positive control to evaluate the transfection- and transduction-efficacy.
(§2) 4T1 cells were transduced with a lentiviral vector expressing a doxycycline inducible Cas9 nuclease (Cat #CAS11229, Dharmacon) for a tight regulation of the Cas9 expression and gene editing. An infection rate of 30% was used to ensure that the majority of transduced cells harbour a single copy of the vector. These 4T1 cells were always kept in selection medium containing 10 μg/mL of blasticidin (ant-bl-05, Invivogen). When reaching 70% confluency, cells were transduced with one titer of virus. After 24h, the virus was removed and transduction efficacy evaluated based on GFP expression. After 48h, puromycin (P9620, Sigma-Aldrich) 1.5 μg/mL medium was added to the medium. Cells were kept in the presence of blasticidin and puromycin for the remaining experimental procedures. After 3-5 days, Cas9 expression was induced by adding […] (D2975000, Sigma-Aldrich) 0.5 μg/mL medium for 3 days. Cells were kept one day without […] before injection in the mice or further experimental procedures. 4T1 cells transduced with the four gRNAs targeting Hif1b were expanded and proteins were extracted to test the efficacy of the knockout by western blot. […]
(§3) All the experimental procedures were approved by the Institutional Animal Care and Research Advisory Committee of the KU Leuven. […] Tumour volumes were monitored every two to three days by a calliper, and mice were culled before tumour volumes exceeded 2,000 mm^3. […]

4T1 tumours [2] = experiment: Growth of orthotopic 4T1 tumours in mice; assay type: in vivo, mouse; details: aza versus vehicle, P=3.0×10^-3
Procedure: (§4) All the experimental procedures were approved by the Institutional Animal Care and Research Advisory Committee of the KU Leuven. 1×10^6 4T1 cells, Hif1b-knockout or wild-type (scramble), were injected orthotopically in the mammary gland of 10 weeks old Balb/c mice, and 1×10^6 CT26 or MC38 cells were injected subcutaneously in 10 weeks old Balb/c or C57BL/6J mice, respectively. When the tumour was palpable (starting volume 100 mm^3), the mice were injected intraperitoneally with 0.8 mg/kg of 5-aza-2′-deoxycytidine (aza) or PBS, 40 mg/kg DC101 antibody (BE0089, InVivoMab) or IgG (BE0060, InVivoMab) or 10 mg/kg anti-PD1 antibody (6E0146, InVivoMab) or IgG antibody (BE0089, InVivoMab) according to the following schedules: DC101 three times per week; anti-PD1 every other day, starting when the tumour size was around 200 mm^3; aza was administered in 2 cycles with 2-days rest in between until the control tumours reached the endpoint. Tumour volumes were monitored every two to three days by a calliper, and mice were culled before tumour volumes exceeded 2,000 mm^3. When over 20% of mice were culled, the experiment was terminated (all arms). In vivo experiments in 4T1, CT26 and MC38 treated with aza or anti-PD1 antibody were performed three times, with at least 6 mice per treatment group in each experiment.

[3] = system: HIF1β binding peaks in MCF7 cells; experiment: HIF1β ChIP-seq in hypoxic vehicle- and aza-treated MCF7 cells
MCF7 cells [4] = experiment: Retrotransposon expression by mRNA-seq and RepEnrich in MCF7 cells; assay type: cell-based, human
Procedure: (§5) Where indicated, cells were pre-treated with 5-aza-2′-deoxycytidine (aza, 1 μM) for 3 days by adding the correct volume to fresh culture medium while using an equal volume of the carrier (DMSO) as control. This was followed by another day of exposure to aza in hypoxia or normoxia, bringing the total aza exposure time for experiments to 4 days. 2 mM of DMOG (dimethyloxalylglycine, Sigma) was added to culture medium for 24 hours where indicated.
(§6) mRNA capture and stranded library preparation of RNA from MCF7 cells, mouse cell lines and tumours for the purpose of retrotransposon expression analysis was performed using the KAPA Stranded mRNA-Seq Kit (Illumina) according to the provided protocol.
(§7) RNA-seq data were expressed in transcript per million (TPM), 0.01 offset. Expression read counts of retrotransposons are calculated using the RepEnrich tool (https://github.com/nerettilab/RepEnrich), and normalized to the total mappable read depth. The repeat genome of the human reference genome hg19 was download from the RepEnrich website. Human retrotransposon classes (LINE, SINE, LTR) contain 16 families and 779 subfamilies. The repeat genome of the mouse genome mm10 was built using the repeat masker track from the UCSC genome browser. Mouse retrotransposon classes (LINE, SINE, LTR) contain 24 families and 906 subfamilies.

MCF7 cells [5] = experiment: DNA methylation in aza-treated MCF7 cells (LC-ESI-MS/MS of 5mC, BS-seq); assay type: cell-based, human
4T1^Hif1b-KO grafts = experiment: 4T1 Hif1b-KO grafts in mice treated with aza or vehicle; assay type: in vivo, mouse
From the text: as §1, §2, §3

4T1 tumours [6] = experiment: RNA-seq of 4T1 tumours from treated mice (retrotransposon expression, immune signatures); assay type: in vivo, mouse
Procedure: as §6, §7, §4

4T1 tumours [7] = experiment: Immunofluorescence of 4T1 tumours (CD31, pimonidazole, CD8, granzyme B); assay type: in vivo, mouse; details: aza versus vehicle
Procedure: as §4, with “experiment. […]” for “experiment.”

4T1 cells = experiment: Retrotransposon expression in 4T1 cells in vitro; assay type: cell-based, mouse
Procedure: as §5, §6, §7

[8] = aza versus PBS, GSVA on immune metagenes

SMILES: Nc1ncn([C@H]2C[C@H](O)[C@@H](CO)O2)c(=O)n1 [aza, 5-aza-2′-deoxycytidine]
- retrotransposon overexpression (increase) ([1]; aza alone): 25%
- retrotransposon overexpression (increase) ([1]; aza in hypoxia): 20%
- cancer testis antigen expression (4T1^Hif1b-scr grafts; aza treatment): significant upregulation
- graft size (4T1^Hif1b-scr grafts; aza versus vehicle, P=0.021): significantly reduced size
- number of activated T cells (4T1^Hif1b-scr grafts; following aza): increased
- change in tumour growth (4T1 tumours [2]): −32%
- new HIF1β binding peaks exposed ([3]; HIF1β ChIP-seq, hypoxia 0.5% O2 16 hours): 1,236
- fraction of aza-specific HIF1β binding peaks in retrotransposons ([3]; versus 4.1% in vehicle-treated MCF7 cells): 8.1%
- enrichment of novel aza-specific HIF1β binding peaks for retrotransposons ([3]; versus peaks in vehicle-treated MCF7 cells): 2 fold
- increase in expression of the 176 retrotransposon subfamilies bound by HIF1β (MCF7 cells [4]; aza alone): 23%
- expression of the 59 retrotransposons correlated with cytolytic activity (MCF7 cells [4]; aza-treated MCF7 cells, P<0.05): upregulated
- average increase in retrotransposon expression (MCF7 cells [4]; combined aza and chronic (4-day) hypoxia): 45%
- increase in expression of the 176 retrotransposon subfamilies bound by HIF1β (MCF7 cells [4]; combined aza and hypoxia (24 hours, 0.5% O2)): 27%
- overall reduction of DNA methylation (MCF7 cells [5]; MCF7 cells pharmacologically demethylated with aza (1 μM, 4 days)): 70.5±5.5%
- reduced methylation at new HIF1β binding sites in aza-treated cells (MCF7 cells [5]; aza-treated versus untreated MCF7 cells): 2.5 fold
- cancer testis antigen expression (4T1^Hif1b-KO grafts; aza treatment): significant upregulation
- graft size (4T1^Hif1b-KO grafts; aza versus vehicle, P=0.21): failed to show this reduction
- number of activated T cells (4T1^Hif1b-KO grafts; following aza): failed to show such increase
- activated T cell and natural killer cell signatures (4T1 tumours [6]; [8]): upregulated
- myeloid-derived suppressor cell signatures (4T1 tumours [6]; [8]): downregulated
- cell proliferation marker expression (4T1 tumours [6]; aza versus vehicle): did not reduce
- retrotransposon expression (4T1 tumours [6]; in vivo, aza versus vehicle): increased
- increase in number of activated, granzyme B-positive T cells (4T1 tumours [7]; P<0.05): 2.1 fold
- T-cell infiltration (4T1 tumours [7]; immunofluorescence of CD8+ T cells): unaffected
- retrotransposon expression (4T1 cells): increase

From patent US20220090209A1, “RETROTRANSPOSON BIOMARKERS” (VIB VZW, priority 2019, published 2022)
